Laboratory results published in patent US20240351997A1, “NOVEL PARP7 INHIBITOR AND USE THEREOF” (SHANGHAI QILU PHARMACEUTICAL RESEARCH AND DEVELOPMENT …, priority 2021, published 2024).

Target: PARP7 (Homo sapiens (Human), UniProt Q7Z3E1)
Assay: In vitro enzymology experiment of PARP7 (enzymatic inhibition)
Type: biochemical
Outline: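 Histone-coated plate ADP-ribosylation format: compound preincubated 10 min at room temperature with preincubated (25 °C, 10 min) enzyme mixture; incorporated biotin detected by streptavidin-HRP and QuantaRed fluorescence (Ex550/Em620).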

Sequence of PARP7 (Q7Z3E1 whole entry): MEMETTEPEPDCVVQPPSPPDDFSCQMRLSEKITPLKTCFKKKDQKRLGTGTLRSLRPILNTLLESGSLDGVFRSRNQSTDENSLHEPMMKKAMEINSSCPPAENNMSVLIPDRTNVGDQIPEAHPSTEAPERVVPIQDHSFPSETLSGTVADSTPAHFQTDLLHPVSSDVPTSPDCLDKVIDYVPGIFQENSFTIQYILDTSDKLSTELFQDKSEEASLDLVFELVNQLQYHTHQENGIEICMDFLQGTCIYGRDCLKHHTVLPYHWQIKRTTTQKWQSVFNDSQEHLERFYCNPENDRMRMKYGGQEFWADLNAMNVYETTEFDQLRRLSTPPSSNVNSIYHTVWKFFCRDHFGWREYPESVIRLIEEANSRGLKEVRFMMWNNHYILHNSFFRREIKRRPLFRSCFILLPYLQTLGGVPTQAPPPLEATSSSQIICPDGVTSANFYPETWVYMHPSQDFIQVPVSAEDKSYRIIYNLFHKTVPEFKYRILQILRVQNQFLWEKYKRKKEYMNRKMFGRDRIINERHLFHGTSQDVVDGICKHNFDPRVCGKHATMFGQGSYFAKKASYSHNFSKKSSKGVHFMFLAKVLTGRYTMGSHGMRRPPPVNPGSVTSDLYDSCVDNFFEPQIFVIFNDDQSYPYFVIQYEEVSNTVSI

SMILES | IC50 [pM]
C[C@@H]1CN(c2ncc(C(F)(F)F)cn2)[C@@H](C)CN1C(=O)O[C@@H](C)Cc1c[nH]c(=O)c(C(F)(F)F)c1 [Example 155, (S)-1-(6-Oxo-5-(trifluoromethyl)-1,6-dihydropyridin-3-yl)propan-2-yl (2R,5S)-2,5-dimethyl-4-(5-(trifluoromethyl)pyrimidin-2-yl)piperazine-1-carboxylate] | 590
C[C@@H]1CN(c2ncc(C(F)(F)F)cn2)C[C@H](C)N1C(=O)O[C@@H](C)Cc1c[nH]c(=O)c(C(F)(F)F)c1 [Example 156, (S)-1-(6-Oxo-5-(trifluoromethyl)-1,6-dihydropyridin-3-yl)propan-2-yl (2R,6S)-2,6-dimethyl-4-(5-(trifluoromethyl)pyrimidin-2-yl)piperazine-1-carboxylate] | 980
C[C@@H]1CN(C(=O)O[C@@H](C)Cc2c[nH]c(=O)c(C(F)(F)F)c2)C[C@@H](C)N1c1ncc(C(F)(F)F)cn1 [Example 157, (S)-1-(6-Oxo-5-(trifluoromethyl)-1,6-dihydropyridin-3-yl)propan-2-yl (3R,5R)-3,5-dimethyl-4-(5-(trifluoromethyl)pyrimidin-2-yl)piperazine-1-carboxylate] | 900
C[C@@H]1CN(c2ncc(C(F)(F)F)cn2)C[C@@H](C)N1C(=O)O[C@@H](C)Cc1c[nH]c(=O)c(C(F)(F)F)c1 [Example 158, (S)-1-(6-Oxo-5-(trifluoromethyl)-1,6-dihydropyridin-3-yl)propan-2-yl (2R,6R)-2,6-dimethyl-4-(5-(trifluoromethyl)pyrimidin-2-yl)piperazine-1-carboxylate] | 5000
C[C@@H](Cc1c[nH]c(=O)c(C(F)(F)F)c1)OC(=O)N1[C@@H](C)CN(c2ncc(C(F)(F)F)cn2)C[C@@H]1C [Example 159, (S)-1-(6-Oxo-5-(trifluoromethyl)-1,6-dihydropyridin-3-yl)propan-2-yl (2S,6S)-2,6-dimethyl-4-(5-(trifluoromethyl)pyrimidin-2-yl)piperazine-1-carboxylate] | 900
C[C@@H]1CN(C(=O)O[C@@H](C)Cc2c[nH]c(=O)c(C(F)(F)F)c2)[C@@H](C)CN1c1ncc(C(F)(F)F)cn1 [Example 160, (S)-1-(6-Oxo-5-(trifluoromethyl)-1,6-dihydropyridin-3-yl)propan-2-yl (2S,5R)-2,5-dimethyl-4-(5-(trifluoromethyl)pyrimidin-2-yl)piperazine-1-carboxylate] | 1300
C[C@@H]1CN(c2ncc(C(F)(F)F)cn2)[C@H](C)CN1C(=O)O[C@@H](C)Cc1c[nH]c(=O)c(C(F)(F)F)c1 [Example 161, (S)-1-(6-Oxo-5-(trifluoromethyl)-1,6-dihydropyridin-3-yl)propan-2-yl (2R,5R)-2,5-dimethyl-4-(5-(trifluoromethyl)pyrimidin-2-yl)piperazine-1-carboxylate] | 910
C[C@@H]1CN(C(=O)O[C@@H](C)Cc2c[nH]c(=O)c(C(F)(F)F)c2)C[C@H](C)N1c1ncc(C(F)(F)F)cn1 [Example 162, (S)-1-(6-Oxo-5-(trifluoromethyl)-1,6-dihydropyridin-3-yl)propan-2-yl (3S,5R)-3,5-dimethyl-4-(5-(trifluoromethyl)pyrimidin-2-yl)piperazine-1-carboxylate] | 1200
Cc1cnc(N2C[C@@H](C)N(C(=O)OCCc3c[nH]c(=O)c(C(F)(F)F)c3)[C@@H](C)C2)nc1 [Example 163, 2-(6-Oxo-5-(trifluoromethyl)-1,6-dihydropyridin-3-yl)ethyl (2R,6S)-2,6-dimethyl-4-(5-methylpyrimidin-2-yl)piperazine-1-carboxylate] | 750
Cc1cnc(N2C[C@H](C)N(C(=O)OCCc3c[nH]c(=O)c(C(F)(F)F)c3)[C@@H](C)C2)nc1 [Example 164, 2-(6-Oxo-5-(trifluoromethyl)-1,6-dihydropyridin-3-yl)ethyl (2S,6S)-2,6-dimethyl-4-(5-methylpyrimidin-2-yl)piperazine-1-carboxylate] | 5600
